From patent US5756531A, “Iminoxy derivatives of indole and indene compounds as inhibitors of prostaglandin biosynthesis” (Abbott Laboratories, priority 1996, dated 1998)

Legend:
[1] = target: T1, recombinant human PGHS-2 (prostaglandin hydroperoxidase -2, cyclooxygenase-2) (Homo sapiens, UniProt P35354); assay: Recombinant Human PGHS-2 enzyme assay (PGE2 production by EIA); assay type: biochemical; settings: 60 min preincubation; 10 μM arachidonic acid
T1 construct: made in house; host or cells: baculovirus/Sf9 insect cells (microsomes)
T1 sequence (P35354 18-604): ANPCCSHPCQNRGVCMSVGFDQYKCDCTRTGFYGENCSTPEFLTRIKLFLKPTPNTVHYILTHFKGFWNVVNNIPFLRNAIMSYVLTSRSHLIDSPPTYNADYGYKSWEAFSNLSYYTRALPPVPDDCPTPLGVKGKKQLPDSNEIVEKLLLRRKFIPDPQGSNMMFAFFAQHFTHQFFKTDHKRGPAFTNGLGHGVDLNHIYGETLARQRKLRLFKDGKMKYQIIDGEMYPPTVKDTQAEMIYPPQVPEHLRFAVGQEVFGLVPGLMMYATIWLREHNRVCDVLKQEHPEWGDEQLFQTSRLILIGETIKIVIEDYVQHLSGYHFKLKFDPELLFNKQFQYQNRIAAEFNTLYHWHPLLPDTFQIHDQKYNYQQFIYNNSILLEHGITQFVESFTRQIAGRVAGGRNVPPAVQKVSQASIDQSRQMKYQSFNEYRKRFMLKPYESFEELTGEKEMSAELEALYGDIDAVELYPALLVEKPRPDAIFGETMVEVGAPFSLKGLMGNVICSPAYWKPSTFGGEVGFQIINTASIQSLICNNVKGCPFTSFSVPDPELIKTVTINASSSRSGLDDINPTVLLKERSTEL
Method: 2. recombinant human prostaglandin hydroperoxidase -2 (cyclooxygenase-2)
(§1) Compound dissolved in DMSO (3.3% v/v) was preincubated with microsomes from recombinant human PGHS-1 or PGHS-2 expressed in the baculovirus/Sf9 cell system (Gierse, J. K., Hauser, S. D., Creely, D. P., Koboldt, C., Rangwala, S., H., Isakson, P. C., and Seibert, K. Expression and selective inhibition of the constituitive and inducible forms of cyclooxygenase Biochem J. 1995, 305: 479.), together with the cofactors phenol (2 mM) and hematin (1 μM) for 60 minutes prior to the addition of 10 μM arachidonic acid. The reaction was allowed to run for 2.5 minutes at room temperature prior to quenching with HCl and neutralization with NaOH. PGE2 production in the presence and absence of the drug was determined by EIA analysis.
(§2) EIA reagents for prostaglandin determination were purchased from Perseptive Diagnostics, Cambridge, Mass. PGE2 levels in lavage fluids were determined after the samples were dried under nitrogen and reconstituted with assay buffer. PGE2 levels in enzyme assays or cell culture media were measured against standards prepared in the same milieu. The immunoassays were conducted as recommended by the manufacturer. The EIA was conducted in 96 well microtiter plates (Nunc Roskilde, Denmark) and optical density measured using a microplate reader (Vmax, Molecular Devices Corp., Menlo Park, Calif.).

[2] = target: T2, recombinant human PGHS-1 (prostaglandin hydroperoxidase -1, cyclooxygenase-1) (Homo sapiens, UniProt P23219); assay: Recombinant Human PGHS-1 enzyme assay (PGE2 production by EIA); assay type: biochemical; settings: 60 min preincubation; 10 μM arachidonic acid
T2 construct: made in house; host or cells: baculovirus/Sf9 insect cells (microsomes)
T2 sequence (P23219 24-599): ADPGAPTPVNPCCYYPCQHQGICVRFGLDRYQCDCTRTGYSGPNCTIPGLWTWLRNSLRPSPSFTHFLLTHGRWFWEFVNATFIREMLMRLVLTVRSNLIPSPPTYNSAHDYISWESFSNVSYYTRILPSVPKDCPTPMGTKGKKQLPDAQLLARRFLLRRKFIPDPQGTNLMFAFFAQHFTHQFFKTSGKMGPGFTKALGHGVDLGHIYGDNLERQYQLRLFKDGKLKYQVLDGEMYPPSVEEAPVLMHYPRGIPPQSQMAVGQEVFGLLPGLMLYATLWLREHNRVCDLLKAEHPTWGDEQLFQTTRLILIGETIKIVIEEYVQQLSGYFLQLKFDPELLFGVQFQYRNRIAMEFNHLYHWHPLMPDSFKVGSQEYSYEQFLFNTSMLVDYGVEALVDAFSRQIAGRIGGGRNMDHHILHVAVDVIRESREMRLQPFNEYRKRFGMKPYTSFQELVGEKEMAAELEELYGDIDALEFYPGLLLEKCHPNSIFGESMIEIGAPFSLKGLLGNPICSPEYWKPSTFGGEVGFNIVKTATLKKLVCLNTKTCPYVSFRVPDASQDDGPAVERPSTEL
Method: 1. recombinant human prostaglandin hydroperoxidase -1 (cyclooxygenase-1)
as §1, §2

PGHS-1 = settings: in words; cited from earlier work
PGHS-2 = settings: in words; cited from earlier work

Molecule `COc1ccc2c(c1)c(CCON=CC(O)CO)c(C)n2C(=O)c1ccc(Cl)cc1` (stereo not drawn) [Example 7, glyceraldehyde-O-[2-(1-(4-chlorobenzoyl)-5-methoxy-2-methylindol-3-yl)ethyl] oxime] has an IC50 [1] of 60 nM and an IC50 [2] of 24 µM.
In the case of `CC(C)Cc1ccc(C(C)C(=O)O)cc1` (stereo not drawn) [ibuprofen], the “inhibition of PGHS-1” value (PGHS-1) is listed as “inhibit both isozymes” and the “inhibition of PGHS-2” value (PGHS-2) is listed as “inhibit both isozymes”.
In the case of `COc1ccc2c(c1)c(CC(=O)O)c(C)n2C(=O)c1ccc(Cl)cc1` [Indomethacin, indomethacin], the “inhibition of PGHS-1” value (PGHS-1) is given as “inhibit both PGHS-1 and PGHS-2” and the “inhibition of PGHS-2” value (PGHS-2) is given as “inhibit both PGHS-1 and PGHS-2”.
With `COc1ccc2c(c1)c(CCON=C(C)/C=C/C(=O)O)c(C)n2C(=O)c1ccc(Cl)cc1` [Example 6, 4-oxopent-2-enoic acid-2-O-[2-(4-chlorobenzoyl-5-methoxy-2-methylindol-3-yl)ethyl] oxime] the IC50 [1] was 70 nM and the IC50 [2] was 52 µM.
In the case of `COc1ccc2cc([C@H](C)C(=O)O)ccc2c1` [naproxen], the “inhibition of PGHS-1” value (PGHS-1) is given as “inhibit both isozymes” and the “inhibition of PGHS-2” value (PGHS-2) is given as “inhibit both isozymes”.
For `CC1=C(CC(=O)O)c2cc(F)ccc2/C1=C\c1ccc([S+](C)[O-])cc1` (stereo not drawn) [sulindac], the “inhibition of PGHS-1” value (PGHS-1) is given as “inhibit both PGHS-1 and PGHS-2” and the “inhibition of PGHS-2” value (PGHS-2) is given as “inhibit both PGHS-1 and PGHS-2”.
